Data taken from US20190359547A1, “METHOD OF RETARDING AN ETHYLENE RESPONSE” (CURTIN UNIVERSITY OF TECHNOLOGY, priority 2016, published 2019).

What was measured:
[1] = tested on: 'Tegan Blue' Japanese plum fruit; test: climacteric respiration (CO2 production) in 'Tegan Blue' plum fruit; format: in vivo; conditions: ethylene only 0.72 mmol CO2 kg^-1 h^-1
[2] = tested on: 'Tegan Blue' Japanese plum fruit; test: climacteric ethylene level in 'Tegan Blue' plum fruit after fumigation; format: in vivo; conditions: for level of climacteric ethylene, suppressed, in comparison to the solely ethylene treated fruit: 'Tegan Blue' plum, ethylene only 4.73 μmol kg^-1 h^-1
WX17 wax flower = test: flower/bud abscission in WX17 wax flower; format: in vivo, Wax flower (Chamelaucium Desf.); conditions: BC 100 nLL^-1 fumigation followed by ethylene exposure (10 μLL^-1)
Experimental: (§1) To evaluate the effects of BC and NC on flower abscission, flowering stems of Wax flower (Chamelaucium Desf.) (WX17, WX73 and WX107) were collected from mature bushes grown at Department of Agriculture and Food Western Australia (DAFWA), Perth (31° 58′ 55″ S/115° 51′ 47″ E). Collected stems were immediately placed upright in buckets with water and recut at 20-25 cm in length (from the cut end to the most extreme opened-flowers). The flower stalks were treated similarly as the fruits with BC (0-100 nLL^−1) or NC (0-100 nLL^−1) and ethylene. The experiments were laid out by following CRD design, having five replications for each treatment and five stalks in each replication. During the treatment period, the flower stalks were placed in small plastic bottles with distilled water. A cone made of nylon mesh was placed at the base of the stalks to check the number of abscised flowers. […]
(§2) The experimental data were analysed following one-way analysis of variance (ANOVA) by using Genstat 13 (release 13.1; Lawes Agricultural Trust, Rothamsted Experimental Station, Harpenden, UK). The effects of various treatments and their interactions were assessed and least significant differences (Fisher's LSD) were calculated by F test at 5% level of significance.

[3] = tested on: 'Arctic Pride' nectarine fruit; test: climacteric respiration (CO2 production) in 'Arctic Pride' nectarine fruit; format: in vivo; conditions: ethylene only 0.31 mmol CO2 kg^-1 h^-1
WX73 wax flower = test: flower/bud abscission in WX73 wax flower; format: in vivo, Wax flower (Chamelaucium Desf.)
Experimental: as §1, §2

solubility in water = format: physicochemical
[4] = tested on: 'Arctic Pride' nectarine fruit; test: climacteric ethylene level in 'Arctic Pride' nectarine fruit after fumigation; format: in vivo; conditions: BC 50 nLL^-1 + ethylene, ethylene only 0.414 μmol kg^-1 h^-1
[5] = stability at room temperature; format: physicochemical

solubility in water (solubility in water) | SMILES | climacteric respiration, suppressed, than the solely ethylene treated fruit ([1]; 1-MCP 1000 μLL^-1 + ethylene) [fold] | level of climacteric ethylene, suppressed, in comparison to the solely ethylene treated fruit ([2]; 1000 nLL^-1 1-MCP fumigation 18 hr + ethylene (10 μL L^-1, 24 hr)) [fold] | rate of flower/bud abscission (WX17 wax flower) [%] | suppression of respiration climacteric in comparison to the solely ethylene treated fruit ([3]; BC 50 nLL^-1 + ethylene) [fold] | suppression of respiration climacteric in comparison to the solely ethylene treated fruit ([3]; BC 50 nLL^-1 without ethylene) [fold] | rate of flower/bud abscission (WX73 wax flower; 50 nL L^-1 BC followed by ethylene treatment) [%] | rate of flower/bud abscission (WX73 wax flower; 100 nL L^-1 BC followed by ethylene treatment) [%] | levels of ethylene, suppressed, than the solely ethylene treated fruit [4] [fold] | climacteric respiration, suppressed, than the solely ethylene treated fruit ([1]; BC 100 nLL^-1 + ethylene) [fold] | stability [5] | level of climacteric ethylene, suppressed, in comparison to the solely ethylene treated fruit ([2]; 100 nLL^-1 BC fumigation 18 hr + ethylene (10 μL L^-1, 24 hr)) [fold] | effect on climacteric ethylene and respiration compared with 1-MCP (1000 nL L^-1) ([2]; BC 100 nL L^-1 versus 1-MCP 1000 nL L^-1, 'Tegan Blue' and 'Fortune' plum, 'Arctic Pride' nectarine)
– | CC1=CC1 [1-MCP, 1-Methylcyclopropene, reference compound] | 0.77 | 0.70 | – | – | – | – | – | – | – | – | – | –
only partially soluble in water | c1ccc2c(c1)C2 [BC, benzocyclopropene] | – | – | 6.05 | 0.77 | 0.71 | 22.43 | 28.40 | 0.63 | 0.83 | stable at room temperature for several months | 0.80 | non-significant differences
